# According to publication PMC6273978, “Synthesis and Pharmacological Evaluation of Novel Pleuromutilin Derivatives with Substituted Benzimidazole Moieties” (Molecules, 2016):
# Experiments:
# [1] = tested on: Escherichia coli (E. coli); test: MIC testing, agar dilution method; assay type: cell-based; conditions: 36.5 °C, 24–48 h
# Text: (§1) The synthesized pleuromutilin derivatives 3 and 4a–l, with tiamulin fumarate used a as reference drug, were screened for their in vitro antibacterial activity against Escherichia coli (E. coli), Staphylococcus aureus (S. aureus), Methicillin-resistant Staphylococcus aureus (MRSA), Staphylococcus vitulinus (S. vitulinus), Staphylococcus warneri (S. warneri), and Staphylococcus haemolyticus (S. haemolyticus). The antibacterial activities are reported in Table 1 as the minimum inhibitory concentration (MIC) using the agar dilution method. The MICs of the 13 new pleuromutilin derivatives in vitro against E. coli ranged from 10 to 80 μg/mL; against S. aureus, MRSA, S. vitulinus, S. warneri, and S. haemolyticus ranged from 0.156 to 40 μg/mL, respectively.
# (§2) The MIC for the synthesized compounds (3 and 4a–l) and tiamulin fumarate used as a reference drug were determined using the agar dilution method according to the National Committee for Clinical Laboratory Standards (NCCLS). Tested compounds were dissolved in 25%–40% DMSO to a solution with a concentration of 1280 µg/mL, whereas tiamulin fumarate was directly dissolved in 10 mL of distilled water at the same concentration as the tested compounds. All the solutions were then diluted twofold with sterile water to provide 11 dilutions (final concentration is 0.625 µg/mL). A 2 mL volume of the 2-fold serial dilution of each test compound/drug was incorporated into 18 mL of hot Muellere-Hinton agar medium. Inoculums, including five Gram (+), S. aureus, MRSA, S. vitulinus, S. warneri, S. haemolyticus, and one Gram (−), E. coli were prepared from blood slants and adjusted to approximately 10^5–10^6 CFU/mL with sterile saline (0.90% NaCl). A 10 µL amount of bacterial suspension was spotted onto Muellere-Hinton agar plates containing serial dilutions of the compounds/drug. The plates were incubated at 36.5 °C for 24–48 h. The same procedure was repeated in triplicate.
# [2] = tested on: Methicillin-resistant Staphylococcus aureus (MRSA); test: MIC testing, agar dilution method; assay type: cell-based; conditions: 36.5 °C, 24–48 h
# Text: as §1, §2
# [3] = tested on: Staphylococcus aureus (S. aureus); test: MIC testing, agar dilution method; assay type: cell-based; conditions: 36.5 °C, 24–48 h
# Text: as §1, §2
# [4] = tested on: Staphylococcus haemolyticus (S. haemolyticus); test: MIC testing, agar dilution method; assay type: cell-based; conditions: 36.5 °C, 24–48 h
# Text: as §1, §2
# [5] = tested on: Staphylococcus vitulinus (S. vitulinus); test: MIC testing, agar dilution method; assay type: cell-based; conditions: Mammaliicoccus vitulinus, 36.5 °C, 24–48 h
# Text: as §1, §2
# [6] = tested on: Staphylococcus warneri (S. warneri); test: MIC testing, agar dilution method; assay type: cell-based; conditions: 36.5 °C, 24–48 h
# Text: as §1, §2
# E. coli = test: Oxford cup assay, zone of inhibition; assay type: cell-based; conditions: Escherichia coli
# Method: (§3) The Oxford cup assays were carried out to evaluate the antibacterial activities against the above-mentioned six bacterial strains. The zones of inhibition for two concentrations (320 and 160 μg/mL) of the synthetic compounds and tiamulin fumarate were measured. The results of Oxford cup assay correspond with that obtained by agar dilution method (MICs) as a whole.
# (§4) The procedure for Oxford cup assays was the same as that previously reported. Briefly, inoculums were prepared in 0.9% saline using McFarland standard and spread uniformly on nutrient agar plates. The 320 and 160 µg/mL of all the tested compounds were added individually into the Oxford cups that were placed at equal distances above the agar surfaces. The zone of inhibition for each concentration was measured after a 24–36 h incubation at 37 °C. The same procedure was repeated in triplicate.
# MRSA [7] = test: Oxford cup assay, zone of inhibition; assay type: cell-based; conditions: Staphylococcus aureus
# Method: as §3, §4
# S. aureus [8] = test: Oxford cup assay, zone of inhibition; assay type: cell-based; conditions: Staphylococcus aureus
# Method: as §3, §4
# S. haemolyticus = test: Oxford cup assay, zone of inhibition; assay type: cell-based; conditions: Staphylococcus haemolyticus
# Method: as §3, §4
# S. warneri = test: Oxford cup assay, zone of inhibition; assay type: cell-based; conditions: Staphylococcus warneri
# Method: as §3, §4
# S. vitulinus = test: Oxford cup assay, zone of inhibition; assay type: cell-based, Staphylococcus vitulinus; conditions: Mammaliicoccus vitulinus
# Method: as §3, §4
# MRSA [9] = test: Inhibition of short-term bacterial growth (absorbance at 450 nm); assay type: cell-based; conditions: Staphylococcus aureus, 3.5 h incubation, Mueller-Hinton broth
# Method: (§5) Compound 3, being the best antibacterial derivative, was chosen for further evaluation on its antibacterial effect to inhibit short-term S. aureus and MRSA growth (Figure 2). This includes the GI50 of tiamulin fumarate for S. aureus and MRSA.
# (§6) The inhibition activities of test compounds were evaluated by measuring the absorbance of the bacterial suspension. In brief, inoculums were prepared from blood slants and adjusted to approximately 10^6 CFU/mL in Muellere-Hinton broth. The 0.0625, 0.125, 0.25, 0.5, 1, and 2 µM of tested compounds were prepared and added to the prepared inoculums. A sample of inoculum with no compound was used as control. The absorbance of bacterial suspension at 450 nm was measured using an UV spectrophotometer after 3.5 h of incubation, and the inhibition was calculated as 1 − (A^P/A^0), where A^p and A^0 are the absorbance of bacterial suspension in the presence and absence of compounds, respectively. The same procedure was independently repeated in triplicate.
# S. aureus [10] = test: as above; assay type: cell-based; conditions: Staphylococcus aureus, 3.5 h, read-out: GI50 S. aureus growth
# Method: as §5, §6
compound,measurement,setting,value
"C=C[C@]1(C)C[C@@H](OC(=O)CSc2nc3ccc(N)cc3[nH]2)[C@]2(C)[C@H](C)CC[C@]3(CCC(=O)[C@H]32)[C@@H](C)[C@@H]1O [Compound 3, 14-O-((5-Amino-benzimidazole-2-yl)thioacetyl) Mutilin]",MIC,[1],10 µg/mL
same,MIC,[2],0.156 µg/mL
same,MIC,[3],0.156 µg/mL
same,MIC,[4],0.156 µg/mL
same,MIC,[5],0.156 µg/mL
same,MIC,[6],0.156 µg/mL
same,zone of inhibition at 160 µg/mL,E. coli; 160 µg/mL,21.4 mm
same,zone of inhibition at 320 µg/mL,E. coli; 320 µg/mL,25.5 mm
same,zone of inhibition at 160 µg/mL,MRSA [7]; 160 µg/mL,25.4 mm
same,zone of inhibition at 320 µg/mL,MRSA [7]; 320 µg/mL,30.6 mm
same,zone of inhibition at 160 µg/mL,S. aureus [8]; 160 µg/mL,27.3 mm
same,zone of inhibition at 320 µg/mL,S. aureus [8]; 320 µg/mL,29.6 mm
same,zone of inhibition at 160 µg/mL,S. haemolyticus; 160 µg/mL,30.3 mm
same,zone of inhibition at 320 µg/mL,S. haemolyticus; 320 µg/mL,33 mm
same,zone of inhibition at 160 µg/mL,S. warneri; 160 µg/mL,28 mm
same,zone of inhibition at 320 µg/mL,S. warneri; 320 µg/mL,32.3 mm
same,zone of inhibition at 160 µg/mL,S. vitulinus; 160 µg/mL,25.5 mm
same,zone of inhibition at 320 µg/mL,S. vitulinus; 320 µg/mL,29.6 mm
same,GI50,MRSA [9],175 nM
same,GI50,S. aureus [10],98.7 nM
